In article PMC7153899, “Anti-hyperglycemic activity of myricetin, through inhibition of DPP-4 and enhanced GLP-1 levels, is attenuated by co-ingestion with lectin-rich protein” (PLoS ONE, 2020):

Target: T1, Dipeptidyl peptidase-4 (DPP-4) (Homo sapiens, UniProt P27487)
T1 construct: gene DPP4; recombinant DPP-4 (human)
Test: colorimetric enzyme assay with recombinant human DPP-4, gly-pro p-nitroanilide substrate, absorbance […] nm
Format: biochemical

T1 sequence (P27487 39-766): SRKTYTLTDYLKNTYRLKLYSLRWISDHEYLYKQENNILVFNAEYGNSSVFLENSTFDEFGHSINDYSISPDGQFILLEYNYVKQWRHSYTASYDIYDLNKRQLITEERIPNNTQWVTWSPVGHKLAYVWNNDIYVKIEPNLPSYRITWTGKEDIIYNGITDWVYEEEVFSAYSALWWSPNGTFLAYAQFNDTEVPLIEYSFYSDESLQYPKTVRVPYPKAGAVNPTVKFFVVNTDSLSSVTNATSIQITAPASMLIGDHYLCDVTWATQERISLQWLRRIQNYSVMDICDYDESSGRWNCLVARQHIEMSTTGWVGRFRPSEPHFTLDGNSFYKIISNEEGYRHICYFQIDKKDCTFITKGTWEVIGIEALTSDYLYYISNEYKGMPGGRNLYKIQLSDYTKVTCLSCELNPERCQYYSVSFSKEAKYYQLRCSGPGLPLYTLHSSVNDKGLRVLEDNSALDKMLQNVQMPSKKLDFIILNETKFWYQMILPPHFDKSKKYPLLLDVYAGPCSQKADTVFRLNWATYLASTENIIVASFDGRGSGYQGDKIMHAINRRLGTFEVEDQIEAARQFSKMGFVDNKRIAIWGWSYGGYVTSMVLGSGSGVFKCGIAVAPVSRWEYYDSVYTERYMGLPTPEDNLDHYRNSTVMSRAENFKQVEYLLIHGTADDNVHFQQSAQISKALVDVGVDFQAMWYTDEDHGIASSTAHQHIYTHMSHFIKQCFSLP

IC50: 4.8 ± 0.36 µM
SMILES: O=c1c(O)c(-c2cc(O)c(O)c(O)c2)oc2cc(O)cc(O)c12 [myricetin]
